Measurements reported in patent US20130071439A1, “METHODS AND COMPOSITIONS FOR TREATING BIOFILMS” (PRESIDENT AND FELLOWS OF HARVARD COLLEGE, priority 2010, published 2013).

Legend:
[1] = tested on: B. subtilis strain NCIB3610; assay: Pellicle (biofilm) formation in liquid biofilm-inducing medium; format: cell-based, Bacillus subtilis; settings: for effect on biofilm formation / effect on pellicle formation: 3 days; for biofilm-inhibition assay for B. subtilis: concentration not given
Procedure: (§1) For colony formation on solid medium, cells were first grown to exponential growth phase in LB broth and 3 μl of culture were spotted onto solid MSgg medium containing 1.5% Bacto agar. The plates were incubated at 23° C. For pellicle formation in liquid medium, cells were grown to exponential phase and 6 μl of culture were mixed with 6 ml of medium in a 12-well plate (VWR). Plates were incubated at 23° C. Images of colonies and pellicles were taken using a SPOT camera (Diagnostic Instruments, USA).
To investigate whether mature biofilms produce a factor that triggers biofilm disassembly, the effect of concentrated and partially purified extracts of conditioned medium on pellicle formation when added to fresh medium was assayed. To this end, conditioned medium from an eight-day-old culture was applied to a C18 Sep Pak column. Concentrated eluate from the column was then added to a freshly inoculated culture. […] Further purification of the factor was achieved by eluting the cartridge in step-wise fashion with increasing concentrations of methanol.
D-tyrosine, D-leucine, D-tryptophan, and D-methionine were screened for inhibiting biofilm formation by B. subtilis both in liquid and on solid medium (FIG. 2A, 5, 6).
Next, the minimum concentration (MIC for Minimal Inhibitory Concentration) needed to prevent biofilm formation was determined.

P.a. Harvard PA14 = assay: Biofilm (colony architecture) formation on M63 defined solid medium; format: cell-based, Pseudomonas aeruginosa; settings: 500 μM (L-tryptophan: concentration not given)
Text: Similarly to Bacillus subtilis, Pseudomonas aeruginosa forms a complex architecture on defined medium. These complex structures require the proper formation and assembly of the extra-cellular matrix. […] For these experiments, the organism/strain was P.a. Harvard PA14, the culture medium was M63 and the cell inoculation was at 1.5×10^9 cfu.

eps operon (strain FC5) = assay: Expression of PepsA-lacZ (β-galactosidase activity); format: cell-based, Bacillus subtilis
Procedure: (§2) Assays of β-galactosidase activity. Cells were cultured in MSgg medium at 37° C. in a water bath with shaking 1 ml of culture was collected at each time point. β-galactosidase activity was determined as described previously (Chai et al., Mol. Microbiol. 67:254 (2008)).

[2] = tested on: B. subtilis strain NCIB3610; assay: Colony biofilm formation on solid MSgg medium; format: cell-based, Bacillus subtilis; settings: 4 days
Procedure: as §1

[3] = tested on: yqxM operon (strain FC122); assay: Expression of PyqxM-lacZ (β-galactosidase activity); format: cell-based, Bacillus subtilis
Procedure: as §2

B. subtilis [4] = assay: Effect on cell growth in MSgg medium with shaking; format: cell-based, Bacillus subtilis
[5] = tested on: Pseudomonas aeruginosa PA14; assay: Biofilm formation on polystyrene, crystal violet staining; format: cell-based
Procedure: (§3) Crystal violet staining was done as described previously (O'Toole et al., Mol. Microbiol. 30:295 (1998)) except that the cells were grown in […]. Wells were stained with 500 μl of 1.0% Crystal-violet dye, rinsed twice with 2 ml double-distilled water and thoroughly dried.
P. aeruginosa strain […] was grown in 12-well polystyrene plates for 48 hours at 30° C. in M63 medium containing glycerol (0.2%) and Casamino acids ([…]). Additionally added to the wells were no amino acids (untreated), D-tyrosine or the D-amino acid equimolar mixture. Cells bound to the polystyrene were visualized by washing away unbound cells and then staining with crystal violet. Wells were stained with […] of 1.0% Crystal-violet dye, rinsed twice with 2 ml double-distilled water and thoroughly dried.
(§4) For experiments reported in Table 1, the organism/strain was S.a. Harvard SCO1, the culture medium was TSB and the cell inoculation was at 2×10^9 cfu. For experiments reported in Table 2, the organism/strain was […], the culture medium was M63 and the cell inoculation was at 1.5×10^9 cfu. Biofilm was visualized using the crystal violet method.

TasA fibers = assay: Cell association of TasA fibers by electron microscopy (immunogold); format: cell-based, Bacillus subtilis; settings: 0.1 mM, 12 hours, Δeps cells
Procedure: Transmission electron microscopy and immunolabeling. Samples were diluted with distilled water and adsorbed onto a carbon or formvar/carbon coated grid. The grid surface was made hydrophilic prior to use with glow discharge in a vacuum evaporator. Once the specimen was adsorbed onto the film surface, the excess sample was blotted off on a filter paper (Whatman #1) and the grid was floated on 5 μl of stain solution (1-2% aqueous uranyl acetate) for a few minutes and then blotted off. The samples were dried and examined in a Tecnai™ G^2 Spirit BioTWIN microscope at an accelerating voltage of 80 KV. Images were taken with an AMT 2k CCD camera. […]
The cells were grown to stationary phase with shaking in biofilm-inducing medium in the presence or absence of D-tyrosine (6 μM). […] When the cells were washed by centrifugation, resuspended and then examined by fluorescence microscopy, untreated cells (which were often in clumps) were seen to be intensely decorated with TasA-mCherry. […] The localization of unmodified TasA protein was also analyzed by transmission electron microscopy using gold-labeled anti-TasA antibodies. […]

B. subtilis [6] = assay: Disruption of existing biofilms (3 day-old pellicles); format: cell-based, Bacillus subtilis; settings: 3 μM added to 3 day-old culture, 8 hours
TasA-mCherry = format: cell-based, Bacillus subtilis; settings: 6 μM
Procedure: For fluorescence microscopy analysis, 1 ml of culture was harvested. The cells were washed with PBS buffer and suspended in 50 μl of PBS buffer. Cover slides were pretreated with poly L-lysine (Sigma). Samples were examined using an Olympus workstation BX61 microscope. Images were taken using the automated software program SimplePCI and analyzed with program MetaMorph (Universal Imaging Corporation).
The cells were grown to stationary phase with shaking in biofilm-inducing medium in the presence or absence of D-tyrosine (6 μM). […] When the cells were washed by centrifugation, resuspended and then examined by fluorescence microscopy, untreated cells (which were often in clumps) were seen to be intensely decorated with TasA-mCherry. […] The localization of unmodified TasA protein was also analyzed by transmission electron microscopy using gold-labeled anti-TasA antibodies. […] 24-hour-old cultures were incubated without (images 1 and 2) or with (images 3-6) D-tyrosine (0.1 mM) for an additional 12 hours. TasA fibers were stained by immunogold labeling using anti-TasA antibodies, and visualized by transmission electron microscopy as described in the Examples. […] Filled arrows indicate fiber bundles; open arrows indicate individual fibers. The scale bar is 500 nm. The scale bar in the enlargements of images 2, 4 and 6 is 100 nm. […]

Pseudomonas aeruginosa = assay: Attached single cells in 6 well plate, Syto-9/SYTOX staining; format: cell-based
Procedure: An alternative method to observe biofilm formation on a 6 well plate with or without D-amino acids and using Syto-9 staining was as follows: Pseudomonas aeruginosa biofilms were washed twice with PBS and then fixed for at least an hour in 5% Glutaraldehyde in PBS. The fixed biofilms were then rinsed once again with PBS and soaked in 0.1% v/v Triton X-100 in PBS (PBST) for 15 minutes. The solution was exchanged with 0.1 nM SYTOX green (Invitrogen) in cold PBST and gently rocked in the dark for at least 15 minutes. Fluorescence images of the biofilms were captured with a Leica DMRX compound microscope using a Xe lamp and a K3 Leica filtercube. […] The amount of attached single cells was quantified using image J. The decrease in the amount of cells attached to the epoxy surfaces soaked with D-aa compared with the L-aa control was substantially more.

S. aureus (strain SCO1) = assay: Biofilm formation on polystyrene, crystal violet staining; format: cell-based, Staphylococcus aureus; settings: 50 μM, 24 hours at 37° C., TSB
Procedure: as §3
The effect of D-amino acids on biofilm formation by other bacteria was examined. The pathogenic bacterium Staphylococcus aureus forms biofilms on plastic surfaces (Otto, Curr. Top. Microbiol. Immunol. 322:207 (2008)), which can be detected by washing away unbound cells and staining the bound cells with crystal violet. […] Additionally added to the wells were no amino acids (untreated), D-tyrosine (50 μM) or the D-amino acid mixture ([…] each). Cells bound to the polystyrene were visualized by washing away unbound cells and then staining with crystal violet.
as §4, with “method. The data is shown below in Tables 1 and 2:” for “method.”
For experiments reported in Tables 3 and 4, the organism/strain was S.a. Harvard SCO1, the culture medium was TSB and the cell inoculation was at 2×10^9 cfu. […]

cell wall = assay: Incorporation of radioactive amino acids into the cell wall; format: cell-based, Bacillus subtilis; settings: 14C-labelled, 10 μCi/ml, 2 h at 37° C.
Procedure: Incorporation of amino acids into the cell wall. Cells in 50 ml of culture at the mid exponential phase of growth were harvested by centrifugation and washed with 0.05 M of phosphate buffer (pH 7) and re-suspended in 5 ml of the same buffer. […] The radioactivity of whole cells and cell wall fraction was monitored, and, at intervals samples were removed. For measurement of incorporation into whole cells, 0.1 ml samples were collected. For measurements of incorporation into cell wall, 0.5 ml samples were collected. The cells were harvested by centrifugation and re-suspended in SM buffer [0.5 M sucrose, 20 mM MgCl2, and 10 mM potassium phosphate at pH (6.8)] containing 0.1 mg/ml lysozyme. The cells were then incubated at 37° C. for 10 min. Next, the resulting protoplasts were removed by centrifugation at 5000 rpm for 10 min, leaving the cell wall material in the supernatant fluid. […] Finally, 10 ml of 5% trichloroacetic acid was added to the whole cell samples and the cell wall material and maintained on ice for at least 30 min. The TCA-insoluble material was collected on Millipore filters (0.22 μm pore size, Millipore) and washed with 5% TCA. The filters were air-dried and placed in scintillation vials and the TCA-insoluble counts per minute were determined using a scintillation counter.

[7] = complete inhibition of pellicle formation

SMILES: CSCC[C@H](N)C(=O)O [L-methionine, reference compound]
- effect on biofilm formation ([1]; 5 mM in MSgg medium): Only the D-amino acids were active

SMILES: N[C@H](Cc1c[nH]c2ccccc12)C(=O)O [D-Trp, D-tryptophan]
- effect on biofilm formation ([1]; 0.5 mM in MSgg medium): active in inhibiting biofilm formation
- minimum concentration (MIC) needed to prevent biofilm formation [1, 7]: around 1 mM
- biofilm-inhibition assay for B. subtilis [1]: significant inhibition of biofilm growth
- effect on biofilm formation on defined medium (P.a. Harvard PA14): inhibited biofilm formation on defined medium

SMILES: N[C@@H](Cc1ccc(O)cc1)C(=O)O [L-Tyr, L-tyrosine, reference compound]
- effect on biofilm formation on defined medium (P.a. Harvard PA14): did not

SMILES: N[C@@H](Cc1c[nH]c2ccccc12)C(=O)O [L-tryptophan, reference compound]
- effect on biofilm formation ([1]; 5 mM in MSgg medium): Only the D-amino acids were active
- effect on biofilm formation on defined medium (P.a. Harvard PA14): did not

SMILES: CC(C)C[C@@H](N)C(=O)O [D-Leu, D-leucine]
- eps expression (eps operon (strain FC5); 8.5 mM): substantially the same as the untreated sample
- effect on biofilm formation on solid medium ([2]; 8.5 mM): inhibited biofilm formation
- effect on pellicle formation ([1]; 8.5 mM added to freshly inoculated culture in biofilm-inducing medium): significant inhibition of biofilm growth
- minimum concentration (MIC) needed to prevent biofilm formation [1, 7]: around 1 mM
- biofilm-inhibition assay for B. subtilis [1]: significant inhibition of biofilm growth
- yqxM expression ([3]; 8.5 mM): substantially the same as the untreated sample
- cell growth (B. subtilis [4]; 8.5 mM): substantially the same as the untreated sample

SMILES: C[C@@H](N)C(=O)O [D-alanine]
- biofilm-inhibition assay for B. subtilis [1]: not effective

SMILES: CSCC[C@@H](N)C(=O)O [D-Met, D-methionine]
- effect on biofilm formation ([1]; 2 mM in MSgg medium): active in inhibiting biofilm formation
- minimum concentration (MIC) needed to prevent biofilm formation [1, 7]: around 1 mM
- biofilm-inhibition assay for B. subtilis [1]: significant inhibition of biofilm growth
- inhibition at 10 µM ([5]; Pseudomonas aeruginosa, PA14, 10 μM, 48 h/30° C., Polystyrene, read-out: % Inhibition relative to control (0%, <50%, 50-90%, >90%)): 0%
- inhibition at 100 µM ([5]; Pseudomonas aeruginosa, PA14, 100 μM, 48 h/30° C., Polystyrene, read-out: % Inhibition relative to control (0%, <50%, 50-90%, >90%)): 0%
- inhibition at 500 µM ([5]; Pseudomonas aeruginosa, PA14, 500 μM, 48 h/30° C., Polystyrene, read-out: % Inhibition relative to control (0%, <50%, 50-90%, >90%)): 0%

SMILES: N[C@H](Cc1ccc(O)cc1)C(=O)O [D-Tyr, D-tyrosine]
- eps expression (eps operon (strain FC5); 3 μM): substantially the same as the untreated sample
- effect on biofilm formation on solid medium ([2]; 3 μM): inhibited biofilm formation
- cell association of TasA fibers (TasA fibers): largely undecorated with TasA fibers
- effect on pellicle formation ([1]; 3 μM added to freshly inoculated culture in biofilm-inducing medium): significant inhibition of biofilm growth
- minimum concentration (MIC/MBIC) needed to prevent biofilm formation [1, 7]: about 100 nM
- biofilm-inhibition assay for B. subtilis [1]: significant inhibition of biofilm growth
- effect on biofilm formation on defined medium (P.a. Harvard PA14): inhibited biofilm formation on defined medium
- effect on existing pellicles (B. subtilis [6]): conspicuous breakdown of pellicles
- yqxM expression ([3]; 3 μM): substantially the same as the untreated sample
- effect on biofilm formation ([5]; 10 μM, 48 hours at 30° C., M63): effective in preventing biofilm formation
- cell association of TasA-mCherry (fluorescence microscopy of washed cells) (TasA-mCherry): only low levels of fluorescence
- total accumulation of TasA-mCherry (total fluorescence) (TasA-mCherry; grown to stationary phase): little or no effect
- number of cells attached to the bottom of the biofilm plate (Pseudomonas aeruginosa): dramatic decrease
- effect on biofilm formation (S. aureus (strain SCO1)): highly effective in preventing biofilm formation
- cell growth (B. subtilis [4]; 3 μM): substantially the same as the untreated sample
- incorporation into the cell wall (cell wall): incorporated into the cell wall

SMILES: N[C@H](Cc1ccccc1)C(=O)O [D-Phe, D-phenylalanine]
- biofilm-inhibition assay for B. subtilis [1]: not effective
